Patent US10736897B2, “Compounds and methods of use thereof for treatment of cancer” (Araxes Pharma LLC, priority 2017, dated 2020)

target: T1, KRAS G12C 1-169, his-tagged protein, GDP-loaded (Homo sapiens, UniProt P01116, G12C); experiment: Biochemical assay: covalent modification of KRAS G12C measured by mass spectrometry (RapidFire/TOF or Q-Exactive); type: binding; settings: Modification Activity; modification percentage from deconvoluted MS peak intensities; compound concentration and incubation time for Table 2 not stated
T1 construct: KRAS G12C 1-169, his-tagged protein, GDP-loaded; His tag
Description: Test compounds are prepared as 10 mM stock solutions in DMSO (Fisher cat # BP-231-100). KRAS G12C 1-169, his-tagged protein, GDP-loaded is diluted to 2 μM or 0.5 μM in buffer (20 mM Hepes, 150 mM NaCl, 1 mM MgCl2). Compounds are tested for activity as follows:
Compounds are diluted to 50× final test concentration in DMSO in 96-well storage plates. Compound stock solutions are vortexed before use and observed carefully for any sign of precipitation. Dilutions are as follow: • For 100 μM final compound concentration, compounds are diluted to 5000 μM (5 μL 10 mM compound stock+5 μL DMSO and mixed well by pipetting. • For 30 μM final compound concentration, compounds are diluted to 1500 μM (3 μL 10 mM compound stock+17 μL DMSO) and mixed well by pipetting. • For 10 μM final compound concentration, compounds are diluted to 500 μM (2 μL 10 mM compound stock+38 μL DMSO) and mixed well by pipetting. 49 μL of the stock protein solution is added to each well of a 96-well PCR plate (Fisher cat #1423027). 1 μl of the diluted 50× compounds are added to appropriate wells in the PCR plate using 12-channel pipettor. Reactions are mixed carefully and thoroughly by pipetting up/down with a 200 μL multi-channel pipettor. The plate is sealed well with aluminum plate seal, and stored in drawer at room temperature for 10 minutes, 30 minutes, 2 hours or 24 hours. 5 μL of 2% formic acid (Fisher cat # A117) in de-ionized H2O is then added to each well followed by mixing with a pipette. The plate is then resealed with aluminum seal and stored on dry ice until analyzed as described below.
The above described assays are analyzed by mass spectrometry according to one of the following two procedures:
The MS instrument is set to positive polarity, 2 GHz resolution, and low mass (1700) mode and allowed to equilibrate for 30 minutes. The instrument is then calibrated, switched to acquisition mode and the appropriate method loaded.
After another 30 minute equilibration time, a blank batch (i.e., buffer) is run to ensure equipment is operating properly. The samples are thawed at 37° C. for 10 minutes, briefly centrifuged, and transfer to the bench top. Wells A1 and H12 are spiked with 1 μL 500 μM internal standard peptide, and the plates centrifuged at 2000×g for 5 minutes. The method is then run and masses of each individual well recorded.
The masses (for which integration data is desired) for each well are pasted into the platemap and exported from the analysis. Masses for the internal standards are exported as well. The data at 50 ppm is extracted for the +19 charge state, and identity of well A1 is assigned using the internal standard spike and integrated. Peak data is exported as a TOF list and the above steps are repeated individually, for the +20, 21, 22, 23, 24, and 25 charge states.
The masses and peak intensities of KRAS G12C protein species are measured using a Dionex RSLCnano system (Thermo Scientific) connected to a Q Exactive Plus mass spectrometer (Thermo Scientific).
[…] of sample is each loaded onto a Aeris™ 3.6 μm WIDEPORE C4 200 Å, LC Column 50×2.1 mm column maintained at 40° C. at a flow rate of 600 μL/min with […] (0.1% formic acid in acetonitrile). The liquid chromatography conditions are 20% solvent B for 1 minute, 20% to 60% solvent B for 1.5 minutes, 60% to 90% solvent for 0.5 minute, 90% solvent B for 0.2 minute, 90% to 20% solvent B for 0.2 minute, and then equilibrated for 1.6 minute before the following sample injection. The flow rate is maintained at 600 μL/min throughout the sample analysis.
The mass spectrometer is operated in profile mode at a resolution of 17500, 5 microscans, using 50 msec max injection time and an AGC target of 1×10^6, and a full mass range from 800-1850 m/z is recorded. The HCD trapping gas is optimized for maximum sensitivity for intact proteins. […]

For `C=CC(=O)N1CCN(c2cc(C#N)nc3c(F)c(-c4c(C)ccc5[nH]nc(C)c45)c(Cl)cc23)CC1` [Compound 29, 4-(4-acryloylpiperazin-1-yl)-6-chloro-7-(3,5-dimethyl-1H-indazol-4-yl)-8-fluoroquinoline-2-carbontrile], which Binding % is on record?
Its Binding % is “++ (++ indicates binding activity from 50 to 85%)”.

`C=CC(=O)N1C[C@H](C)N(c2c(C#N)cnc3c(F)c(-c4c(C)ccc5cnn(C)c45)c(Cl)cc23)C[C@H]1C` [Compound 19, 4-((2S,5R)-4-acryloyl-2,5-dimethylpiperazin-1-yl)-6-chloro-7-(1,6-dimethyl-1H-indazol-7-yl)-8-fluoroquinoline-3-carbonitrile] was tested. Which Binding % did it give?
Its Binding % is “+ (+ indicates binding activity greater than 0% and up to 50%)”.

With `C=CC(=O)N1[C@H](C)CN(c2c(C#N)cnc3c(F)c(-c4c(C)ccc5cnn(C)c45)c(Cl)cc23)C[C@@H]1C` [Compound 22, 4-((3S,5R)-4-acryloyl-3,5-dimethylpiperazin-1-yl)-6-chloro-7-(1,6-dimethyl-1H-indazol-7-yl)-8-fluoroquinoline-3-carbonitrile] as the molecule, how does the Binding % read?
Its Binding % is “++ (++ indicates binding activity from 50 to 85%)”.

`C=CC(=O)N1CCN(c2c(C#N)cnc3c(F)c(-c4c(C)ccc5cnn(C6CC6)c45)c(Cl)cc23)CC1` [Compound 14, 4-(4-acryloylpiperazin-1-yl)-6-chloro-7-(1-cyclopropyl-6-methyl-1H-indazol-7-yl)-8-fluoroquinoline-3-carbonitrile] was tested. Which Binding % did it give?
The Binding % was “+++ (+++ indicates binding activity greater than 85%)”.

With `C=CC(=O)N1C[C@H](C)N(c2c(C#N)cnc3c(F)c(-c4c(C)ccc5cnn(C6CC6)c45)c(Cl)cc23)C[C@H]1C` [Compound 20, 4-((2S,5R)-4-acryloyl-2,5-dimethylpiperazin-1-yl)-6-chloro-7-(1-cyclopropyl-6-methyl-1H-indazol-7-yl)-8-fluoroquinoline-3-carbonitrile] as the molecule, how does the Binding % read?
The Binding % was “+ (+ indicates binding activity greater than 0% and up to 50%)”.

Which Binding % does the source give for `C=CC(=O)N1CCN(c2cnnc3cc(-c4c(C)ccc5[nH]nc(C)c45)c(Cl)cc23)CC1` [Compound 17, 1-(4-(6-chloro-7-(3,5-dimethyl-1H-indazol-4-yl)cinnolin-4-yl)piperazin-1-yl)prop-2-en-1-one] here?
Its Binding % is “+ (+ indicates binding activity greater than 0% and up to 50%)”.

With `C=CC(=O)N1CCN(c2ncnc3c(F)c(-c4c(C)ccc5[nH]nc(C)c45)c(Cl)cc23)CC1CC#N` (centres unmarked) [Compound 31, 2-(1-acryloyl-4-(6-chloro-7-(3,5-dimethyl-1H-indazol-4-yl)-8-fluoroquinazolin-4-yl)piperazin-2-yl)acetonitrile] as the molecule, how does the Binding % read?
Its Binding % is “+++ (+++ indicates binding activity greater than 85%)”.

Which Binding % does the source give for `C=CC(=O)N1[C@H](C)CN(c2ncnc3c(F)c(-c4c(C)ccc5cnn(C)c45)c(Cl)cc23)C[C@@H]1C` (atropisomer, axis not shown) [Compound 10, 1-((2S,6R)-4-((R)-6-chloro-7-(1,6-dimethyl-1H-indazol-7-yl)-8-fluoroquinazolin-4-yl)-2,6-dimethylpiperazin-1-yl)prop-2-en-1-one] here?
The Binding % was “++ (++ indicates binding activity from 50 to 85%)”.
